Where a name gives a salt, the structure may show the parent alone.
What follows are compounds tested against T1, human 11β-HSD1 enzyme (Homo sapiens, UniProt P28845) (assay: Cellular in vitro 11β-HSD1 enzyme inhibition assay (SPA, HEK293/11β-HSD1 cells)). Conditions: HEK293, less than or equal to 1000 nM (1 μM).
T1 construct: stably transfected with a construct containing the full-length gene coding for the human 11β-HSD1 enzyme; expressed in transfected cells; host or cells: HEK293 (HEK293/11β-HSD1 cells)
T1 sequence (P28845 whole entry): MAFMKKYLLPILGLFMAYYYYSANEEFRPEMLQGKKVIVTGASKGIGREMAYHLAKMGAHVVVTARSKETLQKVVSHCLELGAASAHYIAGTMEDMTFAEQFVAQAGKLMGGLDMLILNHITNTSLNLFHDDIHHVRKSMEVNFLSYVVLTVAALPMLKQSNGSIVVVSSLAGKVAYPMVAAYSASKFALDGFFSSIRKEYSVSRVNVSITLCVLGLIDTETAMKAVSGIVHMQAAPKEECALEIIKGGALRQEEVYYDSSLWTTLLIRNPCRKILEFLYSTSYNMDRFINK
Type: cell-based
Protocol: Cellular In Vitro 11β-HSD1 Enzyme Inhibition Assay
Compounds were assessed by a Scintillation Proximity Assay (SPA) performed according to the following protocol:
HEK293 cells were stably transfected with a construct containing the full-length gene coding for the human 11β-HSD1 enzyme to create HEK293/11β-HSD1 cells. Cells were routinely cultured in DMEM containing 10% calf foetal serum, 1% glutamine, and 1% penicillin and streptomycin. Prior to assay, cells were plated at 2×10^4 cells/well in 96-well poly-D-Lys coated flat-bottomed microplates and incubated in 5% CO2, 95% O2 at 37° C. for 24 hours. The media in each well was removed immediately before assay.
Compounds to be tested were dissolved in DMSO at 10 mM and serially diluted into water containing 10% DMSO. Diluted compounds at a volume of 10 μL were added to wells of a 96-well V-bottomed microplate. […] This solution (100 μL/well) was transferred to the plate containing the cells. The plate was then incubated in 5% CO2, 95% O2 at 37° C. for 2 hours.
Following this incubation, 50 μL of the assay solution was transferred to each well of a 96-well scintillation microplate. A mixture consisting of anti-mouse YSi SPA beads, pre-mixed with anti-cortisol antibody in assay buffer (50 mM Tris.HCl, pH 7.0; 300 mM NaCl; 1 mM EDTA, 5% glycerol) was prepared and 50 μL added to each well of the scintillation microplate. An adhesive strip was applied to the microplate and the plate gently shaken for at least 2 hours at room temperature, and then spun briefly on a low speed centrifuge. The plate was read on a scintillation counter suitable for 96-well microplates. For the calculation of percentage inhibition, a series of wells were added to the plate that represented the assay maximum and the assay minimum: one set that contained substrate without cells (mimimum) and another set that contained substrate and cells without any compound (maximum).
The calculation of median inhibitory concentration (IC50) values for the compounds was performed using GraphPad Prism® software. Dose-response curves for each compound were plotted as fractional inhibition and data fitted to the four parameter logistic equation.

IC50 [µM]	SMILES
≤ 1	CC(=O)N1CCC(c2cc(C(=O)N3CCCC(C)(C)CC3)cs2)CC1
≤ 1	CC(=O)N1CCC(c2cc(C(=O)N3CCCC4CCCCC43)cs2)CC1 (stereo not drawn)
≤ 1	O=C(c1csc(C2CCOCC2)c1)N1CCC[C@@H]2CCCC[C@@H]21 (racemic) [CC-027, cis-(octahydro-quinolin-1-yl)-[5-(tetrahydro-pyran-4-yl)-thiophen-3-yl]-methanone]
≤ 1	O=C(c1csc(C2CCS(=O)(=O)CC2)c1)N1CCC[C@@H]2CCCC[C@@H]21 (racemic) [CC-138, cis-[5-(1,1-Dioxo-hexahydro-thiopyran-4-yl)-thiophen-3-yl]-(octahydro-quinolin-1-yl)methanone]
≤ 1	O=C(NCCO)N1CCC(c2cc(C(=O)N3CCC[C@@H]4CCCC[C@@H]43)cs2)CC1 (racemic) [CC-157, cis-4-[4-(Octahydro-quinoline-1-carbonyl)-thiophen-2-yl]-piperidine-1-carboxylic acid(2-hydroxy-ethyl)-amide]
≤ 1	O=C(c1csc(CC(F)(F)F)c1)N1CCC[C@@H]2CCCC[C@@H]21 (relative stereo) [AA-012, cis-(Octahydro-quinolin-1-yl)-[5-(2,2,2-trifluoro-ethyl)-thiophen-3-yl]-methanone]
≤ 1	N#CCc1cc(C(=O)N2CCC[C@@H]3CCCC[C@@H]32)cs1 (relative stereo) [AA-022, cis-[4-(Octahydro-quinoline-1-carbonyl)-thiophen-2-yl]-acetonitrile]
≤ 1	CC(=O)N1CCC(c2cc(C(=O)N3CCC[C@@H]4CCCC[C@@H]43)cs2)CC1 (relative stereo) [CC-035, cis-1-{4-[4-(Octahydro-quinoline-1-carbonyl)-thiophen-2-yl]-piperidin-1-yl}-ethanone]
≤ 1	O=C(CO)N1CCC(c2cc(C(=O)N3CCC[C@@H]4CCCC[C@@H]43)cs2)CC1 (relative stereo) [CC-053, cis-2-Hydroxy-1-{4-[4-(octahydro-quinoline-1-carbonyl)-thiophen-2-yl]-piperidin-1-yl}-ethanone]
≤ 1	CS(=O)(=O)N1CCC(c2cc(C(=O)N3CCC[C@@H]4CCCC[C@@H]43)cs2)CC1 (relative stereo) [CC-065, cis-[5-(1-Methanesulfonyl-piperidin-4-yl)-thiophen-3-yl]-(octahydro-quinolin-1-yl)-methanone]
≤ 1	COC(=O)N1CCC(c2cc(C(=O)N3CCC[C@@H]4CCCC[C@@H]43)cs2)CC1 (relative stereo) [CC-066, cis-4-[4-(Octahydro-quinoline-1-carbonyl)-thiophen-2-yl]-piperidine-1-carboxylic acid methyl ester]
≤ 1	NC(=O)N1CCC(c2cc(C(=O)N3CCC[C@@H]4CCCC[C@@H]43)cs2)CC1 (relative stereo) [CC-068, cis-4-[4-(Octahydro-quinoline-1-carbonyl)-thiophen-2-yl]-piperidine-1-carboxylic acid amide]
≤ 1	N#CC1(c2cc(C(=O)N3CCC[C@@H]4CCCC[C@@H]43)cs2)CCOCC1 (relative stereo) [CC-127, cis-4-[4-(Octahydro-quinoline-1-carbonyl)-thiophen-2-yl]-tetrahydro-pyran-4-carbonitrile]
≤ 1	CC(C)(C(N)=O)N1CCC(c2cc(C(=O)N3CCC[C@@H]4CCCC[C@@H]43)cs2)CC1 (relative stereo) [CC-158, cis-2-{4-[4-(Octahydro-quinoline-1-carbonyl)-thiophen-2-yl]-piperidin-1-yl}-isobutyramide]
≤ 1	O=C(c1csc(C2CCNC2)c1)N1CCC[C@@H]2CCCC[C@@H]21 (relative stereo) [CC-177, cis-(Octahydro-quinolin-1-yl)-(5-pyrrolidin-3-yl-thiophen-3-yl)-methanone]
≤ 1	O=C(c1csc(C2CCNCC2)c1)N1CCCC2CCCCC21 (single isomer, unassigned) [CC-044, trans-(Octahydro-quinolin-1-yl)-(5-piperidin-4-yl-thiophen-3-yl)-methanone]
≤ 1	CC1(C)CC2CC(C)(CN2C(=O)c2csc(C3CCNCC3)c2)C1 (single isomer, unassigned) [CC-075, (5-Piperidin-4-yl-thiophen-3-yl)-(1,3,3-trimethyl-6-aza-bicyclo[3.2.1]oct-6-yl)-methanone]
≤ 1	CC(=O)N1CCC(c2cc(C(=O)N3CCC[C@@H]4CCCC[C@@H]43)cs2)CC1 (single isomer, unassigned) [CC-114, cis-1-{4-[4-(Octahydro-quinoline-1-carbonyl)-thiophen-2-yl]-piperidin-1-yl}-ethanone]
≤ 1	O=C(c1csc(C2CCNCC2)c1)N1CCCCC1c1ccccc1 (single isomer, unassigned) [CC-130, cis-(2-Phenyl-piperidin-1-yl)-(5-piperidin-4-yl-thiophen-3-yl) methanone]

SMILES	IC50 [µM]
O=C(c1csc(C2=CCNCC2)c1)N1CCC[C@@H]2CCCC[C@@H]21 (relative stereo) [CC-046, cis-(octahydro-quinolin-1-yl)-[5-(1,2,3,6-tetrahydro-pyridin-4-yl)-thiophen-3-yl]-methanone]	≤ 1

Same assay, conditions: HEK293, more than 1000 nM (1.0 μM) and less than or equal to 30 μM

IC50 [µM]	SMILES
1 to 30	O=C(c1csc(C2CCOCC2)c1)N1CCCC(F)(F)CC1
1 to 30	O=C(c1csc(C2CCN(CCO)CC2)c1)N1CCC[C@@H]2CCCC[C@@H]21 (racemic) [CC-088, cis-1-(2-Hydroxy-ethyl)-4-[4-(octahydro-quinoline-1-carbonyl)-thiophen-2-yl]-piperidinium formate]
1 to 30	Cn1cc(CN2CCC(c3cc(C(=O)N4CCC[C@@H]5CCCC[C@@H]54)cs3)CC2)cn1 (racemic) [CC-152, cis-1-(1-Methyl-1H-pyrazol-4-ylmethyl)-4-[4-(octahydro-quinoline-1-carbonyl)-thiophen-2-yl]-piperidinium formate]
1 to 30	O=C(c1csc(C2CCNCC2)c1)N1CCC[C@@H]2CCCC[C@H]21 (relative stereo) [CC-034, trans-(Octahydro-quinolin-1-yl)-(5-piperidin-4-yl-thiophen-3-yl)-methanone]
1 to 30	CN1CCC(c2cc(C(=O)N3CCC[C@@H]4CCCC[C@@H]43)cs2)CC1 (relative stereo) [CC-038, cis-[5-(1-Methyl-piperidin-4-yl)-thiophen-3-yl]-(octahydro-quinolin-1-yl)-methanone]
1 to 30	O=C1CNCCN1c1cc(C(=O)N2CCC[C@@H]3CCCC[C@@H]32)cs1 (relative stereo) [CC-048, cis-1-[4-(Octahydro-quinoline-1-carbonyl)-thiophen-2-yl]-piperazin-2-one]
1 to 30	CNCC(=O)N1CCC(c2cc(C(=O)N3CCC[C@@H]4CCCC[C@@H]43)cs2)CC1 (relative stereo) [CC-055, cis-2-Methylamino-1-{4-[4-(octahydro-quinoline-1-carbonyl)-thiophen-2-yl]-piperidin-1-yl}-ethanone]
1 to 30	O=C(CCN1CCCCC1)N1CCC(c2cc(C(=O)N3CCC[C@@H]4CCCC[C@@H]43)cs2)CC1 (relative stereo) [CC-061, cis-1-{4-[4-(Octahydro-quinoline-1-carbonyl)-thiophen-2-yl]-piperidin-1-yl}-3-piperidin-1-yl-propan-1-one]
1 to 30	O=C(c1csc(C2CCN(c3ncccn3)CC2)c1)N1CCC[C@@H]2CCCC[C@@H]21 (relative stereo) [CC-121, cis-(Octahydro-quinolin-1-yl)-[5-(1-pyrimidin-2-yl-piperidin-4-yl)-thiophen-3-yl]-methanone]
1 to 30	O=C(c1csc(C2CCN(CC(F)(F)F)CC2)c1)N1CCC[C@@H]2CCCC[C@@H]21 (relative stereo) [CC-172, cis-(Octahydro-quinolin-1-yl)-{5-[1-(2,2,2-trifluoro-ethyl)-piperidin-4-yl]-thiophen-3-yl}-methanone]
1 to 30	O=C(c1csc(C2CCNCC2)c1)N1CCC[C@@H]2CCCC[C@@H]21 (single isomer, unassigned) [CC-039, cis-(octahydro-quinolin-1-yl)-(5-piperidin-4-yl-thiophen-3-yl)-methanone]
1 to 30	O=C(c1csc(C2CCNCC2)c1)N1CCCC2CCCCC21 (single isomer, unassigned) [CC-045, trans-(Octahydro-quinolin-1-yl)-(5-piperidin-4-yl-thiophen-3-yl)-methanone]
1 to 30	CC1(C)CC2CC(C)(CN2C(=O)c2csc(C3CCNCC3)c2)C1 (single isomer, unassigned) [CC-076, (5-Piperidin-4-yl-thiophen-3-yl)-(1,3,3-trimethyl-6-aza-bicyclo[3.2.1]oct-6-yl)-methanone]

From patent US8362008B2 (The University Of Edinburgh, priority 2007, dated 2013)
